Test [1] addresses T1, sigma receptors (Cavia porcellus, UniProt Q60492).
T1 construct: Brain tissue was prepared from male Hartley guinea pigs; tissue Hazelton Labs; host or cells: brain membranes of male Hartley guinea pigs
The test is described as follows: sigma receptor binding, [^3 H](+)-pentazocine. The note with it: approximately 0.5 nM radioligand, 37° C., 150 min; for inhibition at 10 µM: percent (%) inhibition of binding at 10 μM, guinea pig brain membranes; for Ki: mean of at least two separate determinations performed in triplicate. Also on record: species or system guinea pig. The procedure: (§1) Brain tissue was prepared from male Hartley guinea pigs (Hazelton Labs, Denver, Pa.) which were anesthetized with CO2 and sacrificed by decapitation. All animal care and use procedures were in accord with the "Guide for the Care and Use of Laboratory Animals" (NIH Publ. No. 86-23, 1985). Homogenization was performed in 10 volumes (wt/vol) of 0.32M sucrose with a Brinkmann Polytron at setting 5, 30 sec. The homogenate was centrifuged at 900 x g for 10 min at 4° C., and the supernatant was collected and centrifuged at 22,000 x g for 20 min at 4° C. The pellet was resuspended in 10 volumes of Tris-HCl buffer (50 mM, pH 7.4), incubated at 37° C. for 30 min, and centrifuged at 22,000 x g for 20 min at 4° C. Following this, the pellet was resuspended in Tris buffer and frozen in 5-10 mL aliquots corresponding to a tissue concentration of 100 mg/mL, at -70° C. Binding characteristics of the membranes were stable for at least one month when stored at -70° C.
On the day of the assay, membrane aliquots were thawed, resuspended in fresh Tris-HCl buffer and stored on ice until use. Each assay tube contained 100 μL of [^3 H]-(+)-pentazocine at a final concentration of approximately 0.5 nM or 100 μL of [^3 H]di(2-tolyl)guanidine (DTG) at a final concentration of approximately 4 nM, 100 μL of various concentrations of the compounds of interest, 500 μL of the tissue suspension and 300 μL of buffer to a final assay volume of 1 mL and a final tissue concentration of approximately 8 mg/tube, corresponding to approximately 0.15 mg protein/tube. Non-specific binding was defined by addition of a final concentration of 1 μM haloperidol to blank tubes for [^3 H](+)-pentazocine assay or by addition of a final concentration of 10 μM haloperidol to blank tubes for [^3 H]DTG assay. All tubes were incubated at 37° C. for 150 min in the [^3 H](+)-pentazocine assay or at 25° C. for 90 min in the [^3 H]DTG assay before termination of the reaction by rapid filtration over Whatman GF/B glass fiber filters that were presoaked in a solution of 0.5% polyethyleneimine for at least 1 hr prior to use. Filters were washed with three 4 ml volumes of cold Tris-HCl buffer.
Following addition of scintillation cocktail, samples were allowed to equilibrate for at least 4 hr. The amount of bound radioactivity was determined by liquid scintillation spectrometry using a Beckman LS 5000 TA liquid scintillation counter with an efficiency for tritium of approximately 60%. The results are reported as a percent (%) inhibition of binding at 10 μM.
(§2) Scatchard parameters and inhibition constants (Ki values) for the binding of test compounds were also calculated using the EBDA/LIGAND program (McPherson, J Pharmacol. Meth. 1985, 14, 213-228), purchased from Elsevier/Biosoft, Inc. The Ki values are expressed as the mean of at least two separate determinations performed in triplicate.

Test [2] addresses sigma receptors. The test is described as follows: sigma receptor binding, [^3 H]di(2-tolyl)guanidine (DTG). Also on record: species or system guinea pig. As to conditions: approximately 4 nM radioligand, 25° C., 90 min. The procedure:
as §1, with “Following this, the pellet was resuspended in Tris buffer and frozen in 5-10 mL aliquots corresponding to a tissue concentration of 100 mg/mL, at -70° C. Binding characteristics of the membranes were stable for at least one month when stored at -70° C.” left out
Following addition of scintillation cocktail, samples were allowed to equilibrate for at least 4 hr. The amount of bound radioactivity was determined by liquid scintillation spectrometry using a Beckman LS 5000 TA liquid scintillation counter with an efficiency for tritium of approximately 60%. […]
as §2

Molecules are shown by their SMILES.

T1 sequence (Q60492 whole entry): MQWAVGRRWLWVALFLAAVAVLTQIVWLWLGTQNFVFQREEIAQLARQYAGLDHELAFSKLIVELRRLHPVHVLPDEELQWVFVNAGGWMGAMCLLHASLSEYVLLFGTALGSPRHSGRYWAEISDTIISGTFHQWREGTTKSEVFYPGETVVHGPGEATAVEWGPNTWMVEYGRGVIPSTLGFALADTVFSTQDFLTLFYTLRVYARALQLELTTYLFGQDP

As usually defined, the inhibition is the share of the control response that was lost under treatment. `C[C@@H]1CCN(C)[C@@H](C)[C@]1(C)CCNC1CCCC1` (relative stereo) [Example 1c, N-cyclopentyl-1,2,3,4-tetramethyl-3-piperidineethanamine] had an inhibition at 10 µM on sigma receptors [1] of 57%. On the same count and under the same terms, the value for `C[C@@H]1CCN(C)[C@@H](C)[C@]1(C)CCNC(=O)c1ccsc1` (relative stereo) [Example 5, N-[2-(1,2,3,4-tetramethyl-3-piperidinyl)-ethyl]-3-thiophenecarboxamide] was 79%; that for `C[C@@H]1CCN(C)[C@@H](C)[C@]1(C)CCN(C)C1CCCC1` (relative stereo) [Example 3, N-cyclopentyl-N-1,2,3,4-pentamethyl-3-piperidineethanamine] was 90%. Still for that read-out and setting: as for `C[C@@H]1CCN(C)[C@@H](C)[C@]1(C)CCN(C)C(=O)Cc1ccc(Cl)c(Cl)c1` (relative stereo) [Example 7b, 3,4-dichloro-N-methyl-N-[2-(1,2,3,4-tetramethyl-3-piperidinyl)ethyl]benzeneacetamide], the figure is 94%; as for `C[C@@H]1CCN(Cc2ccccc2)[C@@H](C)[C@]1(C)CCN` (relative stereo) [Example 2b, 2,3,4-trimethyl-1-(phenylmethyl)-3-piperidineethanamine], 83%. The Ki is the equilibrium dissociation constant of an inhibitor or competing ligand from its target. Regarding `C[C@@H]1CCN(C)[C@@H](C)[C@]1(C)CCN1CCCC1` (relative stereo) [Example 10, 1,2,3,4-tetramethyl-3-[2-(1-pyrrolidinyl)ethyl]piperidine], the inhibition constant (Ki) at sigma receptors [1] came out at 5.98 µM; on sigma receptors [2] (mean of at least two separate determinations performed in triplicate), 7.51 µM. On to `CCOC(=O)NCC[C@]1(C)[C@H](C)CCN(C)[C@H]1C` (relative stereo) [Example 6, ethyl-2-(1,2,3,4-tetramethyl-3-piperidinyl)ethyl carbamate], for which the inhibition at 10 µM on sigma receptors [1] was found to be 69%. Consider `C[C@@H]1CCN(C)[C@@H](C)[C@]1(C)CCN(C)C` (relative stereo) [Example 4, N,N-1,2,3,4-hexamethyl-3-piperidineethanamine], for which, at sigma receptors [1], the Ki worked out at 23.9 µM. Also, the “[^3 H]DTG Percent Inhibition” value in the test on sigma receptors [2] (percent (%) inhibition of binding at 10 μM, guinea pig brain membranes) worked out at 20%.

These data come from patent US5290796A, “Substituted 3-piperidinealkanamines and alkanamides and compositions and method of use thereof” (Sterling Winthrop Inc., priority 1992, dated 1994).
